Experimental findings from US10676438B2, “KCNQ2-5 channel activator” (Ono Pharmaceutical Co., Ltd., priority 2014, dated 2020) are described below.

pEC50, pIC50: −log10 of the molar value. In brackets after ≈: the same amount, converted by molar mass. A value given as a limit tells only on which side of the number the result lay.

One data set addresses Human KCNQ2/3 channel (Homo sapiens (Human), UniProt O43525+O43526). The data set can be described thus: Opening action with respect to KCNQ2/3 channel by depolarization stimulation (thallium influx, FLIPR). Format: cell-based. The note with it: concentration giving 50% of maximum reaction of retigabine (10 μM); human KCNQ2/3 expression CHO-DHFR- cells; 5 mM potassium and 0.5 mM thallium; read-out: KCNQ2/3 ECrtg50. The method, boiled down:
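CHO-DHFR- cells expressing human KCNQ2/3, loaded with FluxOR thallium dye 60 min at room temperature. Compound added 5 min before depolarisation with 5 mM K+ and 0.5 mM Tl+; fluorescence change over 180 s read on FLIPR. ECrtg50 is the concentration giving 50% of the maximal response to 10 μM retigabine.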

Data set [1] deals with urinary bladder extracted from rat. The data set can be described thus: Relaxing action on urinary bladder extracted from rat (rat Magnus test). Particulars: concentration at which tension change rate is -20%; carbachol 1 μM-induced contraction of rat urinary bladder strips. On the procedure: Female Jcl Wistar rats (CLEA Japan, Inc., body weight in use: 170 to 200 g) were anesthetized by intraperitoneal administration of about 40 mg/kg of pentobarbital (Somnopentyl, Schering Plough Animal Health Corporation), and killed by bloodletting, followed by abdominal incision to extract the urinary bladder. Immediately, the extracted urinary bladder was immersed in ice-cooled Krebs buffer (Krebs Ringer bicarbonate buffer (Sigma-Aldlich Co.) containing sodium hydrogencarbonate (final concentration: 15 mM) and calcium chloride (final concentration: 2.5 mM)) which had been saturated with a mixed gas (95% O2, 5% CO2).
The urinary bladder bodies were cut in the longitudinal direction to prepare strip specimens (about 10×3 mm) on ice. Immediately, the prepared specimens were suspended in a Magnus tube with 500 mg of tension loaded. The tube was filled with Krebs buffer (37° C.) aerated with a mixed gas. Note here that specimens were prepared within 24 hours after extraction of the tissue.
When one hour or more had passed after the specimen was suspended, 2.5M KCl was added so that the final concentration became 100 mM, specimens showing contraction reaction were used.
Carbachol (a contraction-inducing substance) at the concentration of contraction of 1 μM was used to induce contraction. […] After the contraction reaction was stabilized, a physiological salt solution or the compound of the present invention was added in a cumulative manner from low concentration such that the final concentration became 1, 10, 100 nM, 1 and 10 μM.
The tension (mg) of the extracted urinary bladder was employed as an evaluation parameter. The tension was read by using analysis software WAVE THERMO 1000. Tension after addition of the contraction-inducing substance was set to 0%. The change rate of the tension after addition of the compound of the present invention relative to the tension after addition of the contraction-inducing substance was defined as tension change rate (%). The tension change rate (%) was adopted as an evaluation indicator. The tension change rate (%) is calculated from the following formula. Tension change rate (%)={Tension after addition of compound of the present invention and the like (mg)−Tension before addition of contraction-inducing substance (mg)}/{Tension after addition of contraction-inducing substance (mg)−Tension before addition of contraction-inducing substance (mg)}×100−100
The value at which the tension change rate (%) was −20% was calculated as IC20, and the value was adopted as an indicator of the relaxing action of the extracted urinary bladder.

The nature of data set [2]: Solubility test (DMSO precipitation method, Pharmacopoeia of Japan elution test second solution). In kind it is physicochemical. Particulars: aqueous buffer, kinetic from dmso stock; Pharmacopoeia of Japan elution test second solution pH=6.8, room temperature, five hours; quantitation range 5 to 100 μM. Put shortly: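 Test compound from 10 mM DMSO stock added to JP elution test second solution (pH 6.8), stirred 5 h at room temperature, then suction-filtered. Filtrate diluted in acetonitrile with internal standard and quantified by LC-MS/MS against a calibration curve (quantitation range 5 to 100 μM).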

Data set [3] in a line: Evaluation of stability in human liver microsome. In kind it is in vitro ADME. Particulars: human, 15 min, 5 μmol/L, pH 7.4. The method, then: A test compound (10 mmol/L DMSO solution, 5 μL) was diluted with 50% acetonitrile aqueous solution (195 μL) to prepare 0.25 mmol/L solution.
To a reactor vessel which had been warmed to 37° C. in advance, 0.5 mg/mL of human liver microsome (Xenotech) and 245 μL of 0.1 M phosphate buffer solution (pH 7.4) including NADPH-Co-factor (BD Biosciences) were added, followed by preincubation for five minutes. Then, the above-mentioned test compound solution (5 μL) was added so as to start reaction (final concentration: 5 μmol/L). Immediately after the start, 20 μL was harvested and added to 180 μL of acetonitrile including an internal standard substance (warfarin) to stop the reaction. This solution (20 μL) was stirred with 180 μL of 50% acetonitrile aqueous solution on a plate equipped with a deproteinization filter. Then, the resulting mixture solution was subjected to suction filtration. The filtrate was adopted as a standard sample.
The above-mentioned reaction solution was incubated at 37° C. for 15 minutes, and 20 μL of the solution was added to 180 μL of cooled acetonitrile (including warfarin that is an internal standard substance) to stop the reaction. This solution (20 μL) was stirred with 180 μL of 50% acetonitrile aqueous solution on a plate equipped with a deproteinization filter, and then the resulting mixture solution was subjected to suction filtration. The filtrate was adopted as a reaction sample.
Residual rate (%) was obtained as follows: 1 μL of the sample solution was infused into LC-MS/MS (Discovery Max manufactured by Thermo Scientific), and a quotient obtained by dividing a peak area ratio of the reaction sample (peak area of test compound/peak area of internal standard substance) was divided by the peak area ratio of the standard sample was multiplied by 100.
Background: Liver microsomes are a subcellular fraction often used to study metabolism.

The target of another data set is hERG channel (Homo sapiens (Human), UniProt Q12809). The data set can be described thus: Evaluation of action on hERG IKr current (patch-clamp). In kind it is cell-based. Particulars: HEK293 cell overexpressing hERG, maximum tail current, 10 minutes after application; read-out: IC50 (50% inhibitory activity of hERG channel). The method, then:
Using HEK293 cell overexpressing a human ether-a-go-go-related gene (hERG), the maximum tale current of the hERG IKr current induced by redepolarization pulse subsequent to depolarization pulse was measured by a patch-clamp method.
(In general: The hERG channel carries a current that helps repolarise heart muscle cells.)

Sequence of hERG channel (Q12809 whole entry): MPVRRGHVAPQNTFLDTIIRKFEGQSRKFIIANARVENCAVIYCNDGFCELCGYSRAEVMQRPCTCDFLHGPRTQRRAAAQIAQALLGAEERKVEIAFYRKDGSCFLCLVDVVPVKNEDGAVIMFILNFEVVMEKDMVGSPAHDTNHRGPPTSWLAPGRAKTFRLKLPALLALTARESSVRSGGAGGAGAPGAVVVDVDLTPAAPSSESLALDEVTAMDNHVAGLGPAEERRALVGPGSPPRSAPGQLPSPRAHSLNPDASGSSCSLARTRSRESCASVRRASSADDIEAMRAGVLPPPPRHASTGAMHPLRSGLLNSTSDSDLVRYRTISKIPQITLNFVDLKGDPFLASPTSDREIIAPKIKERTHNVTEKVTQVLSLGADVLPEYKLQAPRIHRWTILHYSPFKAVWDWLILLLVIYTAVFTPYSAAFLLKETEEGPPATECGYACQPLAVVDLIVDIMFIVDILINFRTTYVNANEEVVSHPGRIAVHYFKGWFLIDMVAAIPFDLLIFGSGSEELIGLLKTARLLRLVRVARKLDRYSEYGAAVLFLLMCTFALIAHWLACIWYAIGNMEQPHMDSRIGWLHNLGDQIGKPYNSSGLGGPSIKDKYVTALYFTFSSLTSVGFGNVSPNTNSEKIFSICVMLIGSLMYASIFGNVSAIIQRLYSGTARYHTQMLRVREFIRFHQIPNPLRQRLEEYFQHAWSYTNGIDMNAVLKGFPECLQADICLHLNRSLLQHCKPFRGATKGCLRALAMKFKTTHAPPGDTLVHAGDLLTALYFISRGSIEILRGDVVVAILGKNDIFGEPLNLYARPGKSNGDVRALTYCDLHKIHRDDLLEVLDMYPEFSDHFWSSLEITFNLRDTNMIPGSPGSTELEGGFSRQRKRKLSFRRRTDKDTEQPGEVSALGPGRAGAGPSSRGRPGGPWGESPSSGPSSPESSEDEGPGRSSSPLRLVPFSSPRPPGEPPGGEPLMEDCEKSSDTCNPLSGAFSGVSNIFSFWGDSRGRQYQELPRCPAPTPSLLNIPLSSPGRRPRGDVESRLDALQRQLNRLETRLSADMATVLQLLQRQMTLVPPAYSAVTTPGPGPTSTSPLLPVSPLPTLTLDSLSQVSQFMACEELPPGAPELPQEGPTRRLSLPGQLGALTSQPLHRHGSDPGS

What is called IC20 is the concentration needed for an effect of 20%. Higher therefore signals weaker potency. As a reminder, the solubility is the dissolved amount per volume that the medium holds. A low value points to a poorly soluble substance. For orientation: pIC50 means the negative decadic logarithm of the IC50, by convention in mol/L. As for `O=C(NCc1cnc(C(F)(F)F)nc1)Nc1c(Cl)cc([C@H](O)C(F)(F)F)cc1Cl` [Example 35 (3), 1-{2,6-dichloro-4-[(1S)-2,2,2-trifluoro-1-hydroxyethyl]phenyl}-3-{[2-(trifluoromethyl)-5-pyrimidinyl]methyl}urea], at Human KCNQ2/3 channel, the pEC50 is 6.52. The IC20 in data set [1] was determined as 100 nM. Further, the solubility at 5 h in data set [2] was found to be 87 µM (≈ 40.3 µg/mL). In addition, the Residual rate in data set [3] turned out to be 100%. Also, the negative-log IC50 (pIC50) at hERG channel is under 5.00.
Regarding `O=C(NCc1cnc(C(F)(F)F)s1)Nc1c(Cl)cc([C@H](O)C(F)(F)F)cc1Cl` [Example 36, 1-{2,6-dichloro-4-[(1S)-2,2,2-trifluoro-1-hydroxyethyl]phenyl}-3-{[2-(trifluoromethyl)-1,3-thiazole-5-yl]methyl}urea], the pEC50 on Human KCNQ2/3 channel is 7.52. The molecule also came in with a concentration for an effect of 20% (IC20) in data set [1] of 10 nM. Moreover, in data set [2], the solubility at 5 h stood at 44 µM (≈ 20.6 µg/mL). In addition, the Residual rate in data set [3] is given as 100%. Also, the pIC50 at hERG channel was under 5.00.
